What is called pA2 is a measure of antagonist potency on a negative log scale. A low value points to lower antagonist potency. What is called ED50 is the dose at which the effect has come halfway, by size or by number of responders. A lower ED50 goes with greater potency. The Kb is the affinity of an antagonist, worked out from how it opposes an agonist. Low values mean higher antagonist affinity, high ones lower antagonist affinity.

This note sets out measurements from patent publication US5849731A, “Indole derivatives and medical application thereof” (Toray Industries, Inc., priority 1995, dated 1998).

Molecules are shown by their SMILES.

The target of assay [1] is T1, δ-opioid (Mus musculus, UniProt P32300).
T1 construct: Each of the vas deferens isolated from the mice was hung in a Magnus tube; from tissue; host or cells: isolated vas deferens of male ddy strain mice
T1 sequence (P32300 whole entry): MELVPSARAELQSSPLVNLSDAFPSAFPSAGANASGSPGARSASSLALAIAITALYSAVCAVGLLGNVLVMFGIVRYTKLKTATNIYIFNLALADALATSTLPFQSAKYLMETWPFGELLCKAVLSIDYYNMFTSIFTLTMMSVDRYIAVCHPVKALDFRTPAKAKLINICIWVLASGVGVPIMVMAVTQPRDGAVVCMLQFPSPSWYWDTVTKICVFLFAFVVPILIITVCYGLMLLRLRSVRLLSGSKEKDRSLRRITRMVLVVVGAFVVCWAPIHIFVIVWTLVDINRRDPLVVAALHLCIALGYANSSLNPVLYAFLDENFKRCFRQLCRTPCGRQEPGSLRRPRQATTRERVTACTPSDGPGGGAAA
Kind of assay: δ-opioid antagonism against DPDPE in mouse vas deferens (MVD). The format is biochemical, mouse (male ddy strain). As to conditions: for pA2: MVD, 100 nM sample compound added 20 minutes before cumulative DPDPE, Schild method. Here is the method:
Using mouse vas deferens (MVD), antagonistic compounds were examined for antagonism against a δ-opioid agonist DPDPE, and agonistic compounds were examined for inhibitory activity against MVD contraction by electric stimulation, and for antagonism by a δ-opioid antagonist NTI.
Male ddy strain mice were used in this experiment. Each of the vas deferens isolated from the mice was hung in a Magnus tube which was filled with a Krebes-Henseleit solution (NaCl […]; KCl 4.7 mM; CaCl2 2.5 mM; KH2 PO4 1.1 mM; NaHCO3 25 mM; glucose 11 mM), and aerated with a gas of 5% carbon dioxide and 95% oxygen and maintained at 37° C. Electric stimulation was applied through upper and lower ring-shaped platinum electrodes at 0.1 Hz and 5.0 mS. Tissue contraction was recorded on a polygraph using an isometric transducer.
Initially, DPDPE was added in a cumulative manner to determine the IC50 value (concentration for 50% inhibition of contraction induced by electric stimulation). Next, 100 nM of a sample compound was added to the system beforehand, and 20 minutes later, DPDPE was added in a cumulative manner. According to the above procedure, the ratio of the IC50 value of DPDPE in the presence of the sample compound to that in the absence of it was determined, and the pA2 value was calculated in accordance with the Schild, et al.'s method [Schild, H. O., Br. J. Pharamacol. Chamother. 4, 277 (1949)].

Assay [2] relates to capsaicin-induced cough. The assay can be described thus: Antitussive action in rat, capsaicin-induced cough. The format is in vivo. Particulars: ip, 0.5 h, dosage for 50% cough inhibition, intraperitoneal, 10% DMSO solution, 30 minutes after administration. Here is the method: Evaluation of Antitussive Action in Rat as a Model for Capsaicin-Induced Cough
Cough was induced by forcing rats to inhale capsaicin (60 μM) which was nebulized by an ultrasonic nebulizer, and fed to caps over the rats' heads through silicone tubes by a respirator. Capsaicin was fed for inhalation at a rate of 70 times/min. and 10 ml each time.
Two hundred and seventy minutes before the drug administration, capsaicin was inhaled for 5 minutes, and inducement of coughing was confirmed during this period. Thirty minutes after the drug administration, capsaicin was inhaled for 5 minutes, and the number of induced coughs during capsaicin inhalation was counted. Antitussive effect was evaluated by determining an inhibitory ratio, namely, the ratio of the number of coughs after the drug administration to that before the drug administration. Capsaicin was dissolved in saline. Each drug was dissolved in a 10% DMSO solution and intraperitoneally administered. The effect of the drug is expressed with an ED50 value which is the dosage for 50% cough inhibition

As for `Oc1ccc2c3c1O[C@H]1c4c(c5cccc6c5n4CC6)C[C@@]4(O)[C@@H](C2)N(CC2CC2)CC[C@]314` [Compound 1, 17-Cyclopropylmethyl-6,7-didehydro-4,5α-epoxy-3,14β-dihydroxy-1',7'-ethylene-6,7,2',3'-indolomorphinan], the pA2 in assay [1] came out at 9.2. The molecule also returned an ED50 in assay [2] of 9.14 µg/kg.

The molecule `Oc1ccc2c3c1O[C@H]1c4c(c5ccc6cccc7c6c5n4CC7)C[C@@]4(O)[C@@H](C2)N(CC2CC2)CC[C@]314` [Compound 2, 17-cyclopropylmethyl-6,7-didehydro-4,5α-epoxy-3,14β-dihydroxy-1',3"-ethylene-6',7'-benzo-6,7,2',3'-indolomorphinan] had a Kb in assay [1] of 2 nM. The 50% effect level in assay [2] (ED50) was put at a dose of 1.71 µg/kg.

In turn, `Oc1ccc2c3c1O[C@H]1c4c(c5cccc6c5n4Cc4ccccc4-6)C[C@@]4(O)[C@@H](C2)N(CC2CC2)CC[C@]314` [Compound 3, 17-cyclopropylmethyl-6,7-didehydro-4,5α-epoxy-3,14β-dihydroxy-1',7'-(2",3"-benzotrimethylene)-6,7,2',3'-indolomorphinan] gave an antagonist equilibrium constant (Kb) in assay [1] of 2.51 nM. This molecule showed an ED50 in assay [2] of 4.37 µg/kg.

On to `Oc1ccc2c3c1O[C@H]1c4c(c5cccc6c5n4CCC6)C[C@@]4(O)[C@@H](C2)N(CC2CC2)CC[C@]314` [Compound 4, 17-cyclopropylmethyl-6,7-didehydro-4,5α-epoxy-3,14β-dihydroxy-1',7'-trimethylene-6,7,2',3'-indolomorphinan], for which the Kb in assay [1] is 0.398 nM. The molecule further displayed an ED50 in assay [2] of 8.58 µg/kg.

For `Cc1ccc2c3c1c1c(n3CCC2)[C@@H]2Oc3c(O)ccc4c3[C@@]23CCN(CC2CC2)[C@H](C4)[C@]3(O)C1` [Compound 5, 17-cyclopropylmethyl-6,7-didehydro-4,5α-epoxy-3,14β-dihydroxy-1',7'-trimethylene-4'-methyl-6,7,2',3'-indolomorphinan], the Kb in assay [1] is 5.01 nM. This molecule registered an ED50 in assay [2] of 20.8 µg/kg.

In assay [1], `COc1ccc2c3c(n4c2c1CCC4)[C@@H]1Oc2c(O)ccc4c2[C@@]12CCN(CC1CC1)[C@H](C4)[C@]2(O)C3` [Compound 6, 17-cyclopropylmethyl-6,7-didehydro-4,5α-epoxy-3,14β-dihydroxy-1',7'-trimethylene-6'-methoxy-6,7,2',3'-indolomorphinan] gave a Kb of 3.16 nM. The 50% effect level in assay [2] (ED50) was put at a dose of 9.43 µg/kg.

`Cc1cc2c3c(c1)c1c(n3CCC2)[C@@H]2Oc3c(O)ccc4c3[C@@]23CCN(CC2CC2)[C@H](C4)[C@]3(O)C1` [Compound 7, 17-cyclopropylmethyl-6,7-didehydro-4,5α-epoxy-3,14β-dihydroxy-1',7'-trimethylene-5'-methyl-6,7,2',3'-indolomorphinan]: the Kb in assay [1] was 5.01 nM. Further, in assay [2], the ED50 amounted to 16.3 µg/kg.

In turn, `Oc1ccc2c3c1O[C@H]1c4c(c5cccc6c5n4CCCC6)C[C@@]4(O)[C@@H](C2)N(CC2CC2)CC[C@]314` [Compound 9, 17-cyclopropylmethyl-6,7-didehydro-4,5α-epoxy-3,14β-dihydroxy-1',7'-tetramethylene-6,7,2',3'-indolomorphinan] showed a pA2 in assay [1] of 8.5. Further, the median effective dose (ED50) in assay [2] was determined as 12.2 µg/kg.

`Oc1ccc2c3c1O[C@H]1c4c(c5cc(F)cc6c5n4CCC6)C[C@@]4(O)[C@@H](C2)N(CC2CC2)CC[C@]314` [Compound 10, 17-cyclopropylmethyl-6,7-didehydro-4,5α-epoxy-3,14β-dihydroxy-1',7'-trimethylene-5'-fluoro-6,7,2',3'-indolomorphinan] gave a Kb in assay [1] of 1.58 nM. The same molecule yielded an ED50 in assay [2] of 15.7 µg/kg.

Turning to `COc1ccc2c3c1O[C@H]1c4c(c5cccc6c5n4CCC6)C[C@@]4(O)[C@@H](C2)N(CC2CC2)CC[C@]314` [Compound 11, 17-Cyclopropylmethyl-6,7-didehydro-4,5α-epoxy-3-methoxy-14β-hydroxy-1',7'-trimethylene-6,7,2',3'-indolomorphinan], the pA2 in assay [1] is recorded as 8.2. The same molecule showed an ED50 in assay [2] of 3.43 µg/kg.
